Test results taken from patent US9029110B2, “Method for producing functional microbially fermented tea extract containing polyphenol derivative” (Kabushiki Kaisha Riverson, priority 2009, dated 2015).

Tests used:
[1] = Test of the functions of decreasing visceral fat and increasing adiponectin (method not described); details: as a result of the test, no data shown
PTP1B = PTP1B expression inhibitory effect, Western blotting; type: cell-based
Procedure: (§1) 3T3-L1 adipocytes can be allowed to grow and maintained in a 5% CO2 environment in high-glucose DMEM containing 50 U/ml penicillin, 50 μg/ml streptomycin, and 10% FCS. The 3T3-L1 cells were subcultured in a dish of 3.5 cm in diameter until confluent and then sufficiently differentiated into adipocytes by culture for another 2 days in the presence of insulin (10 μg/ml), dexamethasone (0.25 μM), and IBMX (3-isobutyl-1-methylxanthine) (0.5 mM). Teadenol A (10 μM) or DMSO (vehicle control) was added to the sufficiently differentiated 3T3-L1 adipocytes, and each culture supernatant was collected after 8, 24, 32, and 48 hours. The amount of adiponectin secreted was determined by Western blotting method.
Teadenol A (10 μM) or DMSO (vehicle control) was added to the sufficiently differentiated 3T3-L1 adipocytes. After culture for 8, 24, 32, and 48 hours, the cells were collected, and the amount of PTP1B […] and the amount of α-tubulin were determined by Western blotting method.

3T3-L1 adipocytes = test: Adiponectin secretion promoting effect, Western blotting of culture supernatant; type: cell-based; details: for amount of adiponectin secreted (Mean, DMSO control = 100.00): differentiated 3T3-L1 adipocytes, 3 runs
Procedure: as §1

[2] = stated as 'can be confirmed', no data shown

SMILES | function on adiponectin [1] | function on visceral fat [1] | PTP1B expression inhibitory activity (PTP1B; statistically significant difference in the samples after 32 hours, 10 μM, 3T3-L1 adipocytes) | amount of adiponectin secreted (Mean, DMSO control = 100.00) (3T3-L1 adipocytes; 10 μM, 8 h) | amount of adiponectin secreted (Mean, DMSO control = 100.00) (3T3-L1 adipocytes; 10 μM, 24 h) | amount of adiponectin secreted (Mean, DMSO control = 100.00) (3T3-L1 adipocytes; 10 μM, 32 h) | amount of adiponectin secreted (Mean, DMSO control = 100.00) (3T3-L1 adipocytes; 10 μM, 48 h) | adiponectin secretion promoting activity (3T3-L1 adipocytes; statistically significant difference in the samples after 24 and 48 hours, 10 μM) | PTP1B expression inhibitory effect (PTP1B; [2]) | adiponectin secretion promoting effect (3T3-L1 adipocytes; [2])
C=C1C=C(C(=O)O)O[C@@H]2Cc3c(O)cc(O)cc3O[C@H]12 [Teadenol A, teadenol A] | increasing adiponectin | decreasing visceral fat | effective | 166.00 | 214.67 | 153.33 | 147.67 | effective |  | 
C=C1C=C(C(=O)O)O[C@@H]2Cc3c(O)cc(O)cc3O[C@@H]12 [Teadenol B, teadenol B] |  |  |  |  |  |  |  |  | effective | effective
